This note sets out measurements from US20240287076A1, “COMPOUNDS FOR TARGETING DEGRADATION OF BRUTON'S TYROSINE KINASE” (BIOGEN MA INC., priority 2021, published 2024).

The DC50 is the midpoint of the concentration-degradation curve. Read a low DC50 as a more potent degrader.

T1 sequence (Q06187 whole entry, the tested form may be a part): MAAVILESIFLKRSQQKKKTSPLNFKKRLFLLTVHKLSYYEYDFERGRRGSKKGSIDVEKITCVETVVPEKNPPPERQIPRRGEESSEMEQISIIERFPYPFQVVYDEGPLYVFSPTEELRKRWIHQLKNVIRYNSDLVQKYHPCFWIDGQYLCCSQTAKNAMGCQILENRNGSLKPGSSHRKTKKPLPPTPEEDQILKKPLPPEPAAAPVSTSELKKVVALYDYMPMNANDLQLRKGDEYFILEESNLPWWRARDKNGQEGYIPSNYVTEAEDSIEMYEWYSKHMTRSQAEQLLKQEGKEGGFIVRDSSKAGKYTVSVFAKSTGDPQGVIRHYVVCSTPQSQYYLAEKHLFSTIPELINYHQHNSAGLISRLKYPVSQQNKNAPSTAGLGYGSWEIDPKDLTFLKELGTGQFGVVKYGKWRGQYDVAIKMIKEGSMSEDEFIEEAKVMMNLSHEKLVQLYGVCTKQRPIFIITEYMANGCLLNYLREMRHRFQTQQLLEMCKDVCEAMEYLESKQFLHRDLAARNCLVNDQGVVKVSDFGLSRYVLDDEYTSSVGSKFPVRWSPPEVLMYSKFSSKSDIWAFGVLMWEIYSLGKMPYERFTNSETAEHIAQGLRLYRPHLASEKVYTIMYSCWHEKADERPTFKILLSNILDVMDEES

The assay concerns the target T1, BTK (Homo sapiens, UniProt Q06187).
T1 construct: The GM01501.3 cell line endogenously expresses BTK with a HiBiT fusion tag via CRISPR knock-in at its C-terminal region; endogenous in cells; host or cells: GM01501.3 (GM01501 cells engineered by CRISPR knock-in of HiBiT at the BTK locus)
Kind of assay: BTK degradation assay using the HiBiT Method (Nano-Glo HiBiT Lytic Assay, GM01501.3 cells). Type of assay: cell-based. As to conditions: HiBiT Degradation on GM01501.3 BTK @ 6 hours. As to the method: Selected compounds were tested in a BTK degradation assay using the HiBiT Method. Park Memorial Institute (RPM1) 1640 Medium with phenol red, L-Glutamine, Sodium Pyruvate, and fetal bovine serum (FBS) were purchased from Gibco (Grand Island, NY, USA). Nano-Glo® HiBiT Lytic Assay System was purchased from Promega (Madison, WI, USA). GM01501 cells were obtained from the NIGMS Human Genetic Cell Repository at the Coriell Institute for Medical Research. The GM01501.3 cell line endogenously expresses BTK with a HiBiT fusion tag via CRISPR knock-in at its C-terminal region. It was engineered by electroporation with the Neon Transfection System (Themo Fisher Scientific), according to manufacturer indications. Electroporation conditions: 1 pulse of 1,350 V for 30 ms for 0.5×10_6 cells. Cell culture flasks and 384-well microplates were acquired from VWR (Radnor, PA, USA). BTK degradation was evaluated by quantification of luminescent signal using Nano-Glo® HiBiT Lytic Assay kit. Test compounds were added to the 384-well plate from a top concentration of 10 μM with 11 points, half log titration in duplicates. GM01501.3 cells were added into 384-well plates at a cell density of 10,000 cells per well in a total volume of 30 μl. The plates were kept at 37° C. with 5% CO2 for 6 hours. Negative control wells included cells treated with DMSO only and positive control wells included only growing media, without Nano-Glo® HiBiT Lytic reagent. After a 6-hour incubation, Nano-Glo® HiBiT Lytic Assay reagent was added to the cells following manufacturer indications. Luminescence was acquired on EnVision™ Multilabel Reader (PerkinElmer, Santa Clara, CA, USA). […] “++++” represents a DC50 value of less than 100 nM. “+++” represents a DC50 value of 100 nM-500 nM. “++” represents a DC50 value of 500 nM-1000 nM. “+” represents a DC50 value of greater than 1000 nM.
On the technique in general: The HiBiT peptide binds its large partner to form an active luciferase.
In turn, `Cc1cc(-c2ncnn3cc(CCCCN4CCC(c5ccc6c(N7CCC(=O)NC7=O)nn(C)c6c5)CC4)cc23)ccc1CNC(=O)c1cnn(C(C)(C)C)c1` [Example 281, 1-(tert-butyl)-N-(4-(6-(4-(4-(3-(2,4-dioxotetrahydropyrimidin-1(2H)-yl)-1-methyl-1H-indazol-6-yl)piperidin-1-yl)butyl)pyrrolo[2,1-f][1,2,4]triazin-4-yl)-2-methylbenzyl)-1H-pyrazole-4-carboxamide] gave a 50% degradation concentration (DC50) of under 100 nM. The value for `Cc1cc(-c2ncnn3cc(CCN4CCC(c5ccc(NC6CCC(=O)NC6=O)cc5)C(F)(F)C4)cc23)ccc1CNC(=O)c1noc(C(C)(C)C)n1` (centres unmarked) [Example 275, 5-(tert-butyl)-N-(4-(6-(2-(4-(4-((2,6-dioxopiperidin-3-yl)amino)phenyl)-3,3-difluoropiperidin-1-yl)ethyl)pyrrolo[2,1-f][1,2,4]triazin-4-yl)-2-methylbenzyl)-1,2,4-oxadiazole-3-carboxamide] was under 100 nM; that for `Cc1cc(-c2ncnn3cc(CCN4CCC(c5ccc6c(N7CCC(=O)NC7=O)nn(C)c6c5)C(F)(F)C4)cc23)ccc1CNC(=O)c1noc(C(C)(C)C)n1` (centres unmarked) [Example 253, 5-(tert-butyl)-N-(4-(6-(2-(4-(3-(2,4-dioxotetrahydropyrimidin-1(2H)-yl)-1-methyl-1H-indazol-6-yl)-3,3-difluoropiperidin-1-yl)ethyl)pyrrolo[2,1-f][1,2,4]triazin-4-yl)-2-methylbenzyl)-1,2,4-oxadiazole-3-carboxamide] was under 100 nM; that for `Cc1cc(-c2ncnn3cc(-c4ccc(CN5CCC(c6ccc(NC7CCC(=O)NC7=O)cc6)CC5)cc4)cc23)ccc1CNC(=O)c1ccc(C(F)(F)F)nc1` (centres unmarked) [Example 63, N-[[4-[6-[4-[[4-[4-[(2,6-dioxo-3-piperidyl)amino]phenyl]-1-piperidyl]methyl]phenyl]pyrrolo[2,1-f][1,2,4]triazin-4-yl]-2-methyl-phenyl]methyl]-6-(trifluoromethyl)pyridine-3-carboxamide] was under 100 nM. The same measure for `Cc1cc(-c2ncnn3cc(-c4ccc(CN5CCC(c6ccc(NC7CCC(=O)NC7=O)cc6)CC5)cc4)cc23)ccc1CNC(=O)c1ccc(C(C)C)cn1` (centres unmarked) [Example 89, N-[[4-[6-[4-[[4-[4-[(2,6-dioxo-3-piperidyl)amino]phenyl]-1-piperidyl]methyl]phenyl]pyrrolo[2,1-f][1,2,4]triazin-4-yl]-2-methyl-phenyl]methyl]-5-isopropyl-pyridine-2-carboxamide]: under 100 nM; for `CC(C)(C)c1nc(C(=O)NCc2ccc(-c3ncnn4cc(-c5ccc(CN6CCC(Cc7cccc(OC8CCC(=O)NC8=O)c7)CC6)cn5)cc34)cc2F)no1` (centres unmarked) [Example 231, 5-(tert-butyl)-N-(4-(6-(5-((4-(3-((2,6-dioxopiperidin-3-yl)oxy)benzyl)piperidin-1-yl)methyl)pyridin-2-yl)pyrrolo[2,1-f][1,2,4]triazin-4-yl)-2-fluorobenzyl)-1,2,4-oxadiazole-3-carboxamide]: 100 to 500 nM; for `Cc1cc(-c2ncnn3cc(N4CCN(C(=O)C5CC6(CCN(C(=O)c7ccc(OC8CCC(=O)NC8=O)cc7)C6)C5)CC4)cc23)ccc1CNC(=O)c1noc(C(C)(C)C)n1` (centres unmarked) [Example 178, 5-(tert-butyl)-N-(4-(6-(4-(6-(4-((2,6-dioxopiperidin-3-yl)oxy)benzoyl)-6-azaspiro[3.4]octane-2-carbonyl)piperazin-1-yl)pyrrolo[2,1-f][1,2,4]triazin-4-yl)-2-methylbenzyl)-1,2,4-oxadiazole-3-carboxamide]: under 100 nM. The value for `Cc1cc(-c2ncnn3cc(-c4ccc(CN5CCC(c6ccc(NC7CCC(=O)NC7=O)cc6)CC5)cc4)cc23)ccc1CNC(=O)c1ncc(C(C)(C)C)o1` (centres unmarked) [Example 86, 5-tert-butyl-N-[[4-[6-[4-[[4-[4-[(2,6-dioxo-3-piperidyl)amino]phenyl]-1-piperidyl]methyl]phenyl]pyrrolo[2,1-f][1,2,4]triazin-4-yl]-2-methyl-phenyl]methyl]oxazole-2-carboxamide] was under 100 nM; that for `Cc1cc(-c2ncnn3cc(-c4ccc(CN5CCC(c6ccc(NC7CCC(=O)NC7=O)cc6)CC5)cc4)cc23)ccc1CNC(=O)c1noc(C(C)(C)C)n1` (racemic) [Example 1, 5-tert-butyl-N-[[4-[6-[4-[[4-[4-[(2,6-dioxo-3-piperidyl)amino]phenyl]-1-piperidyl]methyl]phenyl]pyrrolo[2,1-f][1,2,4]triazin-4-yl]-2-methyl-phenyl]methyl]-1,2,4-oxadiazole-3-carboxamide] was under 100 nM; that for `Cc1cc(-c2ncnn3cc(-c4ccc(CN5CCC(c6ccc(NC7CCC(=O)NC7=O)cn6)CC5)cc4)cc23)ccc1CNC(=O)c1noc(C(C)(C)C)n1` (centres unmarked) [Example 20, 5-tert-butyl-N-[[4-[6-[4-[[4-[5-[(2,6-dioxo-3-piperidyl)amino]-2-pyridyl]-1-piperidyl]methyl]phenyl]pyrrolo[2,1-f][1,2,4]triazin-4-yl]-2-methyl-phenyl]methyl]-1,2,4-oxadiazole-3-carboxamide] was under 100 nM. For `Cc1cc(-c2ncnn3cc(-c4cccc(CCN5CCC(c6ccc(NC7CCC(=O)NC7=O)cc6)CC5)c4)cc23)ccc1CNC(=O)c1noc(C(C)(C)C)n1` (centres unmarked) [Example 54, 5-tert-butyl-N-[[4-[6-[3-[2-[4-[4-[(2,6-dioxo-3-piperidyl)amino]phenyl]-1-piperidyl]ethyl]phenyl]pyrrolo[2,1-f][1,2,4]triazin-4-yl]-2-methyl-phenyl]methyl]-1,2,4-oxadiazole-3-carboxamide], the DC50 is under 100 nM. The value for `Cc1cc(-c2ncnn3cc(-c4nc(CN5CCC(c6ccc(C7CCC(=O)NC7=O)cc6)CC5)co4)cc23)ccc1CNC(=O)c1noc(C(C)(C)C)n1` (centres unmarked) [Example 219, 5-(tert-butyl)-N-(4-(6-(4-((4-(4-(2,6-dioxopiperidin-3-yl)phenyl)piperidin-1-yl)methyl)oxazol-2-yl)pyrrolo[2,1-f][1,2,4]triazin-4-yl)-2-methylbenzyl)-1,2,4-oxadiazole-3-carboxamide] was under 100 nM; that for `COc1ccc(C(=O)NCc2ccc(-c3ncnn4cc(-c5ccc(CN6CCC(c7ccc(NC8CCC(=O)NC8=O)cc7)CC6)cc5)cc34)cc2C)cc1` (centres unmarked) [Example 66, N-[[4-[6-[4-[[4-[4-[(2,6-dioxo-3-piperidyl)amino]phenyl]-1-piperidyl]methyl]phenyl]pyrrolo[2,1-f][1,2,4]triazin-4-yl]-2-methyl-phenyl]methyl]-4-methoxy-benzamide] was under 100 nM; that for `Cc1cc(-c2ncnn3cc(OC4CC(CN5CCC(c6ccc7c(N8CCC(=O)NC8=O)nn(C)c7c6)CC5)C4)cc23)ccc1CNC(=O)c1noc(C(C)(C)C)n1` (centres unmarked) [Example 289, 5-(tert-butyl)-N-(4-(6-(3-((4-(3-(2,4-dioxotetrahydropyrimidin-1(2H)-yl)-1-methyl-1H-indazol-6-yl)piperidin-1-yl)methyl)cyclobutoxy)pyrrolo[2,1-f][1,2,4]triazin-4-yl)-2-methylbenzyl)-1,2,4-oxadiazole-3-carboxamide] was under 100 nM.
